The values below come from US10155765B2, “Carboxamide inhibitors of IRAK4 activity” (MERCK SHARP & DOHME CORP., priority 2015, dated 2018).

This assay addresses IRAK4 (Homo sapiens (Human), UniProt Q9NWZ3). The experiment in a line: IRAK4 Kinase Assay (IMAP fluorescence polarization). In kind it is biochemical. As to conditions: GST tagged IRAK4, 100 μM ATP, 30 minutes at 25° C., IMAP FP. From the text: Other assays are known in the literature and could be readily performed by those of skill in the art.
The reaction is initiated by the addition of ATP.

Structures can show the parent of a compound that is named as a salt.

Sequence of IRAK4 (Q9NWZ3 whole entry): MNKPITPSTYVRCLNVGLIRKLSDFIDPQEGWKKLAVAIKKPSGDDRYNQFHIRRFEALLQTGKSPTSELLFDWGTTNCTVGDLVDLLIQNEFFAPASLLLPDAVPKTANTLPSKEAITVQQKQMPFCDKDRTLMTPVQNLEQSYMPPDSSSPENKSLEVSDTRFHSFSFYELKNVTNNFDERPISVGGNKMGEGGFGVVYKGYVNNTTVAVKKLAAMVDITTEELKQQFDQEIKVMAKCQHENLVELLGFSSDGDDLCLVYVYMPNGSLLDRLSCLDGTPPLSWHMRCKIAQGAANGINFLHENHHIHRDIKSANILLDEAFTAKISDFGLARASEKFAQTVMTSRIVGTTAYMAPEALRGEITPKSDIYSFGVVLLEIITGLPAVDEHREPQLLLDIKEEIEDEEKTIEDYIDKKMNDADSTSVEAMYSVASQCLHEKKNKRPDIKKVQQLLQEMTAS

In the case of `CS(=O)(=O)N1CCC(n2cc(NC(=O)c3cnn4cccnc34)c(C(N)=O)n2)CC1` [Example 48, N-{3-carbamoyl-1-[1-(methylsulfonyl)piperidin-4-yl]-1H-pyrazol-4-yl}pyrazolo[1,5-a]pyrimidine-3-carboxamide], half-maximal inhibition (IC50) required 0.65 µM.

For `NC(=O)c1nn(CCO)cc1NC(=O)c1cnn2ccc(N[C@@H]3CCCC[C@@H]3N)nc12` [Example 23, 5-{[(1R,2S)-2-aminocyclohexyl]amino}-N-[3-carbamoyl-1-(2-hydroxyethyl)-1H-pyrazol-4-yl]pyrazolo[1,5-a]pyrimidine-3-carboxamide trifluoroacetate], the IC50 came to 0.001 µM.

Turning to `Cn1cc(NC(=O)c2ccc3cccnn23)c(C(N)=O)n1` [Example 43, N-(3-carbamoyl-1-methyl-1H-pyrazol-4-yl)pyrrolo[1,2-b]pyridazine-7-carboxamide trifluoroacetate], the IC50 stood at 0.027 µM.

Consider `NC(=O)c1cc(S(N)(=O)=O)c(Cl)cc1NC(=O)c1cnn2cccnc12` [Example 54, N-(2-carbamoyl-5-chloro-4-sulfamoylphenyl)pyrazolo[1,5-a]pyrimidine-3-carboxamide trifluoroacetate], for which half-maximal inhibition (IC50) required 0.31 µM.

On to `CNC(=O)c1nn(C)cc1NC(=O)c1ccc2cnc(N[C@@H]3CCCC[C@@H]3N)nn12` [Example 64, 2-{[(1R,2S)-2-aminocyclohexyl]amino}-N-[1-methyl-3-(methylcarbamoyl)-1H-pyrazol-4-yl]pyrrolo[2,1-f][1,2,4]triazine-7-carboxamide trifluoroacetate], for which the half-maximal inhibitory concentration (IC50) worked out at 0.013 µM.

As for `NC(=O)c1cnccc1NC(=O)c1cnn2cccnc12` [Example 49, N-(3-carbamoylpyridin-4-yl)pyrazolo[1,5-a]pyrimidine-3-carboxamide hydrochloride], half-maximal inhibition (IC50) required 0.71 µM.

As for `Cn1cc(NC(=O)c2cnn3ccc(NC4CCCCC4)nc23)c(C(N)=O)n1` [Example 26, N-(3-carbamoyl-1-methyl-1H-pyrazol-4-yl)-5-(cyclohexylamino)pyrazolo[1,5-a]pyrimidine-3-carboxamide trifluoroacetate], it took 0.18 µM to reach half-maximal inhibition (IC50).

`Cn1cc(NC(=O)c2cnn3ccc(NC4CCCNC4)nc23)c(C(N)=O)n1` (stereo not shown) [Example 15, N-(3-carbamoyl-1-methyl-1H-pyrazol-4-yl)-5-(piperidin-3-ylamino)pyrazolo[1,5-a]pyrimidine-3-carboxamide hydrochloride] had an IC50 of 0.033 µM.

`Cn1cc(NC(=O)c2cnn3ccc(N4CCOCC4)nc23)c(C(N)=O)n1` [Example 30, N-(3-carbamoyl-1-methyl-1H-pyrazol-4-yl)-5-morpholin-4-ylpyrazolo[1,5-a]pyrimidine-3-carboxamide hydrochloride] returned a half-inhibitory concentration (IC50) of 0.24 µM.

`CNC(=O)c1nn(C)cc1NC(=O)c1ccc2cnc(NCCN)nn12` [Example 60, 2-[(2-aminoethyl)amino]-N-[1-methyl-3-(methylcarbamoyl)-1H-pyrazol-4-yl]pyrrolo[2,1-f][1,2,4]triazine-7-carboxamide trifluoroacetate] yielded an IC50 of 0.003 µM.

`CN(C)C(=O)c1nn(C)cc1NC(=O)c1cnn2ccc(N[C@H]3CCCC[C@H]3N)nc12` (relative stereo) [Example 17, 5-{[cis-2-aminocyclohexyl]amino}-N-[3-(dimethylcarbamoyl)-1-methyl-1H-pyrazol-4-yl]pyrazolo[1,5-a]pyrimidine-3-carboxamide trifluoroacetate] had an IC50 of 0.15 µM.

Consider `Cn1cc(NC(=O)c2ccc3cnc(N[C@@H]4CCCC[C@@H]4N)nn23)c(C(N)=O)n1` [Example 61, 2-{[(1R,2S)-2-aminocyclohexyl]amino}-N-(3-carbamoyl-1-methyl-1H-pyrazol-4-yl)pyrrolo[2,1-f][1,2,41triazine-7-carboxamide trifluoroacetate], for which the IC50 turned out to be 0.0007 µM. Compared with the last compound, the IC50 is about 210-fold lower.

The compound `NC(=O)c1nn(-c2cccnc2)cc1NC(=O)c1cnn2ccc(N3CCNCC3)nc12` [Example 36, N-(3-carbamoyl-1-pyridin-3-yl-1H-pyrazol-4-yl)-5-piperazin-1-ylpyrazolo[1,5-a]pyrimidine-3-carboxamide trifluoroacetate] yielded a half-inhibitory concentration (IC50) of 0.033 µM.
